Laboratory results as given in publication PMC3627194, “Xentry, a new class of cell-penetrating peptide uniquely equipped for delivery of drugs” (Scientific Reports, 2013).

Experiments:
HepG2 cells [1] = assay: Assay to test for cell permeability of peptides; assay type: cell-based; settings: confocal microscopy
Protocol: Figure 1 Cell-permeability of X-protein peptides. (a) X-protein peptides aa 1–20 and 16–35 are cell-permeable. Four FITC-labelled peptides encompassing aa 1–20, 16–35, 21–40 and 34–53 from the N-terminal region of the X-protein were incubated at 10 μM with HepG2 cells and their uptake by the cells recorded by confocal microscopy. Cell nuclei were stained blue with DAPI. (b) The sequence of the first 35 N-terminal residues of the HBV X-protein are shown with the sequence of Xentry (LCLRPVG; residues 16–22) highlighted in red. Short FITC-labelled peptides (10 μM) aa 16–26, 16–24 and 16–22 (Xentry) derived from peptide aa 16–35 also permeate HepG2 cells (upper panel). […] Cell nuclei were stained blue with DAPI. […] Cell nuclei were stained blue with DAPI. Scale bar, 50 μm.
(§1) HepG2 cells (ATCC, Manassas, VA) were seeded into 8-well chamber slides at 1 × 10^5 cells per well in MEM media (Gibco, Life Technologies New Zealand Ltd) containing 10% FCS and PSG. […] L-isomeric peptides were diluted in 500 μl of MEM media without FCS, whereas D-isomeric peptides were diluted in the same media containing FCS, and each added to cells at a final concentration of 10 μM, or as indicated. The cells were incubated for 3 h at 37°C in a 5% CO2 atmosphere, washed with PBS, fixed with 4% formaldehyde for 30 min, and washed thrice with PBS. A drop of Prolong Gold anti-fade reagent with DAPI (Invitrogen, Life Technologies New Zealand Ltd) was added, and the cells mounted and examined with a Nikon E600 fluorescence microscope or a Leica TCS-SP2 confocal microscope.
(§2) Supplementary Figure 3. The D-isomeric form of Xentry aa 16-22 is cell permeable, and is stable in serum for at least 4 h.
(§3) (a) FITC-labelled D-isomeric Xentry was incubated with HepG2 cells at concentrations of […] for 3 h.
(§4) Uptake was recorded by fluorescence microscopy. Cell nuclei were stained with DAPI. (b) FITC-labelled L-isomeric and D-isomeric forms of Xentry were incubated in serum for 0, 1, and 4 h before incubation with HepG2 cells. Cell nuclei were stained with DAPI. Scale bar, 50 μm. […]

C32 (melanoma) = assay: Cell permeability of Xentry, C32 cell line; assay type: cell-based; settings: data not shown
DU145 (prostate) = assay: Cell permeability of Xentry, DU145 cell line; assay type: cell-based; settings: data not shown
H441 (lung) = assay: Cell permeability of Xentry, H441 cell line; assay type: cell-based; settings: data not shown
BT474 (breast) = assay: Cell permeability of Xentry, BT474 cell line; assay type: cell-based; settings: data not shown
Cos (kidney) = assay: Cell permeability of Xentry, Cos cell line; assay type: cell-based; settings: data not shown
[2] = test system: Rin-m5F (pancreatic β-cell); assay: Cell permeability of Xentry, Rin-m5F cell line; assay type: cell-based; settings: data not shown
[3] = test system: human peripheral blood lymphocytes; assay: Uptake of Xentry by non-adherent blood lymphocytes; assay type: cell-based; settings: FITC-labelled Xentry 10 μM
erythrocytes = assay: Uptake of Xentry by erythrocytes; assay type: cell-based, human; settings: FITC-labelled Xentry 10 μM
[4] = test system: K562 erythroleukemia cells; assay type: cell-based; settings: non-adherent K562 erythroleukemia cells, FITC-labelled Xentry (LCLRPVG), fluorescence microscopy
Protocol: (§5) K562 cells TK-1 cells Activated TK-1 cells
(§6) Supplementary Figure 1. […] FITC- […]
(§7) labelled Xentry (LCLRPVG; aa 16-22) was incubated with non-adherent K562 erythroleukemia cells and mouse TK-1 T cells and with Mn++-activated TK-1 cells attached to MAdCAM-1-coated plates. Cell uptake was recorded by fluorescence microscopy. Cell nuclei were stained blue with DAPI. Plates were coated with 1 µg/ml of MAdCAM-1 overnight and activated TK-1 cells were allowed to bind to the plates for 45 mins before incubation with FITC-labelled Xentry for 3 h. Scale bar represents […]

mouse TK-1 T cells = assay type: cell-based; settings: non-adherent mouse TK-1 T cells, FITC-labelled Xentry (LCLRPVG), fluorescence microscopy
Protocol: as §5, §6, §7

[5] = test system: peripheral blood monocytes attached to plastic; assay: Uptake of Xentry by adherent blood monocytes; assay type: cell-based, human; settings: FITC-labelled Xentry 10 μM
[6] = test system: Mn++-activated adherent TK-1 T cells bound to MAdCAM-1-coated plates; assay type: cell-based, mouse; settings: Mn++-activated TK-1 cells bound via α4β7 to plates coated with 1 µg/ml MAdCAM-1, FITC-labelled Xentry 3 h
Protocol: as §5, §6, §7

HepG2 cells [7] = assay type: cell-based
Protocol: as §1
Untreated 37°C 4°C deoxyglucose Heparin Chlorpromazine
Supplementary Figure 2. Cellular requirements for internalization of Xentry by HepG2 cells. (a) Incubation of FITC-labelled Xentry with HepG2 cells for 3 h at 4°C, or in the presence of 10 mM sodium azide and 6 mM 2-deoxy-D-glucose, 2 µg/ml heparin, or 10 µg/ml of chlorpromazine, as indicated, inhibited peptide uptake. Cell nuclei were stained blue with DAPI. Scale bar, 50 μm. […]

[8] = assay type: in vitro ADME; settings: FITC-labelled peptide incubated in serum 0, 1 and 4 h, then incubated with HepG2 cells; read-out cell uptake by fluorescence microscopy
Protocol: as §2, §3, §4

[9] = Acute toxicity after intravenous injection; assay type: in vivo; settings: very high concentrations, single injection into the circulation
[10] = test system: K562 cells transfected to express syndecan-4; assay: Uptake of Xentry by K562 cells engineered to express syndecan-4; assay type: cell-based; settings: TAMRA-lclrpvg 20 μM, 3 h, 48 h after transfection with pCMV-hygro-SDC4
Protocol: Cell nuclei were stained blue with DAPI. […] Scale bar, 50 μm.
The media was removed and replaced with RPMI without serum. Four micrograms of the syndecan-4 plasmid pCMV-hygro-SDC4 and 4 μl of polymag transfection reagent (OZ Biosciences, Marseille, France) were mixed in 100 μl of Opti-MEM media. The mixture was incubated for 20 min at room temperature, added to the cells, and the tissue culture plate placed onto a magnetic plate for 20 min. The media was removed and replaced with RPMI media containing 10% FCS, followed by incubation for 48 h at 37°C and 5% CO2, with a media change after 24 h. TAMRA-labelled Xentry (TAMRA-lclrpvg) was added to the transfectants 48 h following transfection to a final concentration of 20 μM, and the cells were incubated for 3 h. The cells were removed from the plate, washed thrice with PBS, cytospun onto a slide, and fixed with 4% formaldehyde for 15 min. They were washed with PBS and DAPI added for visualization of cell nuclei. […] The cells were then examined using a Nikon E600 fluorescent microscope, and photographed.

[11] = assay type: in vivo, Balb/c mice
Protocol: (§8) All experiments in mice were performed in accordance with relevant institutional guidelines and regulations, and were subject to a protocol approved by the Animal Ethics Committee, the University of Auckland. Different amounts (0.1 mg, 1 mg and 5 mg) of a TAMRA-labelled D-isomeric form of Xentry (TAMRA-lclrpvg; Peptide 2.0 Inc., Chantilly, VA) were dissolved in 50 μl of PBS. […] Cardiac blood was collected into an EDTA tube and cytospun onto slides, and viewed by fluorescence microscopy to determine uptake of the peptide by blood cells. The major organs of each mouse was harvested and dissected in half to be either homogenized or placed in a cryotube with isopentane, frozen and sectioned. For homogenization, the organs were weighed and then homogenized in 500 μl of PBS in an Omni bead-ruptor homogenizer (OMNI International, Kennesaw, GA). Equal volumes of homogenate and 8 M guanidinium chloride were mixed, and then centrifuged at 12,000 g for 5 min, and fluorescence of the supernatant measured in a fluorescence plate reader.
Supplementary Figure 5 (cont)
Heart Lung Liver Spleen Pancreas Kidney Stomach Intestine Colon Muscle Brain […]
Supplementary Figure 5. Biodistribution of TAMRA-labelled Xentry intravenously injected into mice. (a) Mice were intravenously injected with 0.1 mg and 5 mg of TAMRA-labelled Xentry and the fluorescence of organ homogenates was measured 15 min, 1, 6, and 24 h later. Results are presented as the mean + SD (n = 3). Refer to Figure 4d for the fluorescence of organ homogenates of mice injected with 1 mg of Xentry. (b) Fluorescence of sections of the major organs of mice intravenously injected with 5 mg of TAMRA-labelled Xentry. The liver sections for the 15 min time-point […]

circulating blood cells = assay type: in vivo, Balb/c mice; settings: 0.1, 1 and 5 mg i.v.; cytospins of whole blood at 15 min, 1 h, 6 h and 24 h
Protocol: as §8
Supplementary Figure 6. […] A sample of […]
cardiac blood was collected from mice injected with 0.1, 1 and 5 mg of TAMRA-labelled Xentry at 4 different time points, and cytospun onto a slide. The blood sample was examined by brightfield and fluorescence microscopy. […]

LCLRPVG [Xentry, 7 amino acid residue peptide LCLRPVG (residues 16–22) of the HBV X-protein; FITC-labelled in uptake tests]
Cell permeability (uptake by HepG2 cells) (HepG2 cells [1]; FITC-labelled L-isomeric peptide 10 μM, MEM without FCS, 3 h, 37°C, cells fixed): cell-permeable
Subcellular localisation after uptake (HepG2 cells [1]; FITC-labelled peptide 10 μM, HepG2 cells, DAPI): taken up into the cytoplasm and nucleus
Cell permeability (C32 (melanoma)): capable of permeating
Cell permeability (DU145 (prostate)): capable of permeating
Cell permeability (H441 (lung)): capable of permeating
Cell permeability (BT474 (breast)): capable of permeating
Cell permeability (Cos (kidney)): capable of permeating
Cell permeability [2]: capable of permeating
Cell permeability [3]: incapable of permeating
Cell permeability (erythrocytes): incapable of permeating
Cell permeability [4]: incapable of permeating
Cell permeability (mouse TK-1 T cells): incapable of permeating
Cell uptake [5]: taken up
Cell uptake [6]: taken up
Internalization by HepG2 cells at 4°C (HepG2 cells [7]; FITC-labelled Xentry, 3 h, 4°C): not at 4 °C
Internalization by HepG2 cells at 37°C (HepG2 cells [7]; FITC-labelled Xentry, 3 h, 37°C): internalized
Uptake in the presence of heparin (HepG2 cells [7]; HepG2, 2 µg/ml heparin, 3 h): blocked
Uptake in the presence of chlorpromazine (HepG2 cells [7]; HepG2, 10 µg/ml chlorpromazine (clathrin pathway inhibitor), 3 h): blocked
Uptake after pretreatment with azide and deoxyglucose (HepG2 cells [7]; HepG2, 10 mM sodium azide and 6 mM 2-deoxy-D-glucose, 3 h): blocked
Effect of cytochalasin D on uptake (HepG2 cells [7]; HepG2, data not shown): without effect
Effect of filipin on uptake (HepG2 cells [7]; HepG2, data not shown): without effect
Time to inactivation in serum [8]: ≤ 1 h
Acute toxicity [9]: no signs of acute toxicity

TAMRA-lclrpvg [TAMRA-labelled Xentry, TAMRA-labelled D-isomeric form of Xentry]
Uptake by syndecan-4-expressing K562 transfectants [10]: increased uptake
Uptake by heart, pancreas, brain relative to other tissues ([11]; 0.1, 1 and 5 mg i.v., organ homogenates): less well
Time to uptake by major tissues (organ homogenates) ([11]; 0.1, 1 and 5 mg i.v., lungs, liver, spleen, kidneys, stomach, small intestine, colon, muscle, homogenate fluorescence, n = 3): ≤ 15 min
Level in most organs, except liver and kidneys, by 24 h ([11]; i.v., 24 h, organ homogenates): only low levels
Distribution within tissue sections ([11]; i.v., fluorescence of organ sections): concentrated within particular regions of certain tissues, such as the epithelia lining the colon, stomach and bronchial airways
Uptake by circulating blood cells (circulating blood cells): not taken up and sequestered
